Data reported in ChEMBL document CHEMBL3217408 (Medchemcomm, 2013).
The source made the active and inactive calls. The calls are words filed in the database; no cut-off is given here.

What was measured:
[1] = biological target: T1, Transcriptional activator protein LasR (Pseudomonas aeruginosa (strain ATCC 15692 / PAO1 / 1C / PRS 101 / LMG12228)) (UniProt P25084); assay: Antagonist activity at LasR in Pseudomonas aeruginosa PAO1 assessed as inhibition of biofilm formation at 0.3 to 333 uM after 20 hrs by crystal violet staining assay
T1 sequence (whole entry): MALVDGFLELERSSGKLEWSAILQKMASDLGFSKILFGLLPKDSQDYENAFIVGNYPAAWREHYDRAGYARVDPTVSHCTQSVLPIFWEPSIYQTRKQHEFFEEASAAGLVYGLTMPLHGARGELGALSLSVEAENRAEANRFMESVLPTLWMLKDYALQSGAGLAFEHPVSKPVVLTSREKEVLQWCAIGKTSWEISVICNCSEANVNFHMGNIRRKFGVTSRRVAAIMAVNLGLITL

[2] = tested on: Pseudomonas aeruginosa; assay: Antibacterial activity against Pseudomonas aeruginosa PAO1 assessed as inhibition of pyocyanin production at 100 uM after 20 hrs; type: functional; settings: PAO1, 20 h
[3] = biological target: T1, Transcriptional activator protein LasR (Pseudomonas aeruginosa (strain ATCC 15692 / PAO1 / 1C / PRS 101 / LMG12228)); assay: Binding affinity to LasR in Pseudomonas aeruginosa PAO1 at 50 to 100 uM after 24 hrs by gel electrophoresis
[4] = tested on: Pseudomonas aeruginosa; assay: Growth inhibition of lasI-rhlI double mutant Pseudomonas aeruginosa PAO-JP2 harboring lasI promoter coupled to the luxCDABE box measured at >100 uM after 5 hrs; type: organism-based; settings: in vivo
[5] = biological target: T2, HTH-type quorum-sensing regulator RhlR (Pseudomonas aeruginosa (strain ATCC 15692 / PAO1 / 1C / PRS 101 / LMG12228)) (UniProt P54292); assay: Antagonist activity at RhlR in lasI-rhlI double mutant Pseudomonas aeruginosa PAO-JP2 harboring lasI promoter coupled to the luxCDABE box assessed as reduction in C4-HSL induced protein measured at 25 to 200 uM after 5 hrs
T2 sequence (whole entry): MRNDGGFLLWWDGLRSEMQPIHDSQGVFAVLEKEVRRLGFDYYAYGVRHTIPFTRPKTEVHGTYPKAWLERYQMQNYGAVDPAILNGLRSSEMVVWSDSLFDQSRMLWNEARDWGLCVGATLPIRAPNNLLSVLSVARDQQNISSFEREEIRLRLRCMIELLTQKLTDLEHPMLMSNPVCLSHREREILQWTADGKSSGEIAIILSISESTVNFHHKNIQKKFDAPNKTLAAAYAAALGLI

[6] = biological target: T1, Transcriptional activator protein LasR (Pseudomonas aeruginosa (strain ATCC 15692 / PAO1 / 1C / PRS 101 / LMG12228)); assay: Antagonist activity at LasR in Escherichia coli DH5a harboring reporter plasmid lasI-lacZ (pSC11) pJN105L plasmid assessed as inhibition of 3-oxo-C12-HSL induced protein activation by Miller assay method; settings: Escherichia coli DH5[alpha]
[7] = biological target: T1, Transcriptional activator protein LasR (Pseudomonas aeruginosa (strain ATCC 15692 / PAO1 / 1C / PRS 101 / LMG12228)); settings: 12 uM
Description: Antagonist activity at LasR in Pseudomonas aeruginosa PAO1 assessed as inhibition of biofilm formation at 12 uM after 20 hrs by crystal violet staining assay

[8] = biological target: T1, Transcriptional activator protein LasR (Pseudomonas aeruginosa (strain ATCC 15692 / PAO1 / 1C / PRS 101 / LMG12228)); settings: JP2, 50 uM
Description: Antagonist activity at LasR in lasI-rhlI double mutant Pseudomonas aeruginosa JP2 harboring lasI promoter coupled to the luxCDABE box assessed as reduction in C4-HSL induced luminescence measured at 50 uM after 5 hrs

[9] = biological target: T1, Transcriptional activator protein LasR (Pseudomonas aeruginosa (strain ATCC 15692 / PAO1 / 1C / PRS 101 / LMG12228)); settings: 200 uM
Description: Inhibition of LasR activation in Pseudomonas aeruginosa PAO1 harboring lasI promoter coupled to the luxCDABE luminescence system assessed as reduction in luminescence measured at 200 uM after 5 hrs

[10] = biological target: T1, Transcriptional activator protein LasR (Pseudomonas aeruginosa (strain ATCC 15692 / PAO1 / 1C / PRS 101 / LMG12228)); settings: JP2, 200 uM
Description: Agonist activity at LasR in lasI-rhlI double mutant Pseudomonas aeruginosa JP2 harboring lasI promoter coupled to the luxCDABE box assessed as reduction in luminescence measured at 200 uM after 5 hrs

SMILES	inhibition [1]	inhibition at 100 µM [2] [%]	Activity [3]	Activity [4]	inhibition [5]	inhibition [6]	inhibition [7]	inhibition [8]	inhibition [9]	inhibition [10]
O=C1C=C(Br)/C(=C/Br)O1	Active									
C[S+]([O-])CCCCN=C=S (stereo not given) [SULFORAPHANE]		> 70	Active	Non-toxic	Active	Dose-dependent effect	Active	Active	Active	inactive
